Experimental data reported in US7598244B2, “[1,2,4]triazolo[1,5,a]pyrimidin-2-ylurea derivative and use thereof” (Nippon Kayaku Kabushiki Kaisha, priority 2003, dated 2009).

Test system: MHC class I molecules of T1 cells (human lymphoma cell line 174×CEM.)
Experiment: Effect on expression of MHC class I from T1 cells (flow cytometry, MFI)
Format: cell-based
Conditions: 3 days culture
Outline: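 EC20 is the compound level that lowers MHC class I MFI by 20% relative to compound-free cultures. Read-out was flow cytometry after FITC W6/32 staining.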

Row | SMILES | EC20 (concentration necessary for suppressing 20% of the expression level of MHC class I molecules)
1 | COCCOCCOCCOc1ccc(-c2ccnc3nc(NC(=O)N[C@@H](C)c4cccc(OC)c4)nn23)cc1 [Example 238] | 15 nM
2 | O=C(Nc1nc2nccc(-c3cccc(O)c3)n2n1)NC1CCCCC1 [Example 085] | 400 nM
3 | CCC[C@H](NC(=O)Nc1nc2nccc(-c3ccc(OC)cc3)n2n1)C(=O)N1CCOCC1 [Example 152] | 780 nM
4 | CC(C)NC(=O)Nc1nc2nccc(-c3cccc(OCCN4CCOCC4)c3)n2n1 [Example 189] | 590 nM
5 | COCCOCCOCCOc1cccc(-c2ccnc3nc(NC(=O)N[C@@H](C)CCCC(C)C)nn23)c1 [Example 265] | 110 nM
6 | CC(C)CCC[C@H](C)NC(=O)Nc1nc2nccc(-c3ccc(OCc4ccccc4)cc3)n2n1 [Example 245, (S)-1-[7-(4-benzyloxyphenyl)-[1,2,4]triazolo[1,5-a]pyrimidin-2-yl]-3-(1,5-dmethylhexyl)urea] | 180 nM
7 | COc1ccc(-c2ccnc3nc(NC(=O)NC(C)C)nn23)cc1OC [Example 086] | 340 nM
8 | CNC(=O)[C@@H](NC(=O)Nc1nc2nccc(-c3ccc(OC)cc3)n2n1)C(C)C [Example 055] | 690 nM
9 | COc1ccc(-c2ccnc3nc(NC(=O)NC(C)c4cccc(OC(=O)OCc5ccccc5)c4)nn23)cc1 (racemic) [Example 197] | 210 nM
10 | COc1cccc([C@H](C)NC(=O)Nc2nc3nccc(-c4cccc(OCCCc5ccncc5)c4)n3n2)c1 [Example 211] | 60 nM
11 | COc1ccc(-c2ccnc3nc(NC(=O)NC(C)CCC4(C)OCCO4)nn23)cc1 (centres unmarked) [Example 323] | 30 nM
12 | COCCCC(C)NC(=O)Nc1nc2nccc(-c3cccs3)n2n1 (centres unmarked) [Example 315] | 270 nM
13 | COC(=O)[C@H](C)NC(=O)[C@H](C)NC(=O)Nc1nc2nccc(-c3ccc(OC)cc3)n2n1 [Example 122] | 340 nM
14 | CCNC(=O)[C@@H](NC(=O)Nc1nc2nccc(-c3ccc(OC)cc3)n2n1)C(C)C [Example 090] | 400 nM
15 | COc1ccc(-c2ccnc3nc(NC(=O)NC(C)CCN(C)C(=O)OC(C)(C)C)nn23)cc1 (centres unmarked) [Example 277] | 180 nM
16 | CC(C)NC(=O)Nc1nc2nccc(-c3ccc(O)cc3)n2n1 [Example 053] | 370 nM
17 | COc1ccc(-c2ccnc3nc(NC(=O)NC(C)c4cccc(OCC(C)C)c4)nn23)cc1 (racemic) [Example 230] | 220 nM
18 | CC(C)NC(=O)Nc1nc2nccc(-c3ccc4c(c3)OCO4)n2n1 [Example 087] | 780 nM
19 | COc1cccc([C@H](C)NC(=O)Nc2nc3nccc(-c4cc(OC)c(OC)c(OC)c4)n3n2)c1 [Example 308] | 760 nM

Row | SMILES | EC20 (concentration necessary for suppressing 20% of the expression level of MHC class I molecules)
20 | COc1ccc(-c2ccnc3nc(NC(=O)NC4C5CC6CC(C5)CC4C6)nn23)cc1 (centres unmarked) [Example 143] | 740 nM
21 | CCOCC[C@H](C)NC(=O)Nc1nc2nccc(-c3ccc(OCC4CCOCC4)cc3)n2n1 [Example 328] | 70 nM
22 | COc1ccc(-c2ccnc3nc(NC(=O)N[C@@H](C)C4CCCCC4)nn23)cc1 [Example 218] | 180 nM
23 | COCOc1ccc(-c2ccnc3nc(NC(=O)N[C@@H](C)c4cccc(OC)c4)nn23)cc1 [Example 226] | 50 nM
24 | CC(CCCC(C)(C)O)NC(=O)Nc1nc2nccc(-c3cccc(OCc4cccnc4)c3)n2n1 (centres unmarked) [Example 313, 1-(5-hydroxy-1,5-dimethylhexyl)-3-{7-[3-(pyridin-3-ylmethoxy)phenyl]-[1,2,4]triazolo[1,5-a]pyrimidin-2-yl}urea] | 290 nM
25 | CC(C)NC(=O)Nc1nc2nccc(-c3cccc(O)c3)n2n1 [Example 084] | 420 nM
26 | COc1cccc([C@H](C)NC(=O)Nc2nc3nccc(-c4cccc(OCc5ccncc5)c4)n3n2)c1 [Example 203] | 190 nM
27 | CC(COCC1CCOCC1)NC(=O)Nc1nc2nccc(-c3cccs3)n2n1 (centres unmarked) [Example 331] | 150 nM
28 | CCNC(=O)Nc1nc2nccc(-c3ccc(OC)cc3)n2n1 [Example 031] | 400 nM
29 | COc1cc(C(C)NC(=O)Nc2nc3nccc(-c4ccc5c(c4)OCO5)n3n2)cc(OC)c1OC (centres unmarked) [Example 302, 1-[7-(3,4-methylenedioxyphenyl)-[1,2,4]triazolo[1,5-a]pyrimidin-2-yl]-3-[1-(3,4,5-trimethoxyphenyl)ethyl]urea] | 180 nM
30 | COc1ccc(-c2ccnc3nc(NC(=O)NC(C)CCC(C)C)nn23)cc1 (racemic) [Example 236] | 80 nM
31 | CC[C@H](NC(=O)Nc1nc2nccc(-c3ccc(OC)cc3)n2n1)c1ccccc1 [Example 130] | 130 nM
32 | COc1ccc(-c2ccnc3nc(NC(=O)N[C@@H](C)C(=O)NC4CCCCC4)nn23)cc1 [Example 120] | 250 nM
33 | COc1cccc(-c2ccnc3nc(NC(=O)NCc4ccccc4)nn23)c1 [Example 019] | 1100 nM
34 | COc1ccc(-c2ccnc3nc(NC(=O)NC(C)c4cc(OC)c(OC)c(OC)c4)nn23)cc1 (centres unmarked) [Example 296] | 70 nM
35 | COc1ccc(-c2ccnc3nc(NC(=O)N[C@@H](Cc4ccccc4)C(=O)OC(C)(C)C)nn23)cc1 [Example 112] | 850 nM
36 | COc1ccc(-c2ccnc3nc(NC(=O)NC(C)CCC(C)=O)nn23)cc1 (centres unmarked) [Example 326] | 210 nM
37 | CCCCNC(=O)Nc1nc2nccc(-c3ccc(OC)cc3)n2n1 [Example 032] | 250 nM
38 | COc1cccc(-c2ccnc3nc(NC(=O)NC(C)C)nn23)c1 [Example 044] | 480 nM

Row | SMILES | EC20 (concentration necessary for suppressing 20% of the expression level of MHC class I molecules)
39 | COCCCNC(=O)Nc1nc2nccc(-c3ccc(OC)cc3)n2n1 [Example 106] | 510 nM
40 | COc1ccc(-c2ccnc3nc(NC(=O)N[C@@H](C)C(=O)NCc4ccccc4)nn23)cc1 [Example 119] | 210 nM
41 | COCCNC(=O)[C@@H](NC(=O)Nc1nc2nccc(-c3ccc(OC)cc3)n2n1)C(C)C [Example 096] | 550 nM
42 | CCC[C@H](NC(=O)Nc1nc2nccc(-c3ccc(OC)cc3)n2n1)C(=O)Nc1ccccc1 [Example 151] | 220 nM
43 | COc1ccc(-c2ccnc3nc(NC(=O)N[C@H](C(=O)NCCN4CCOCC4)C(C)C)nn23)cc1 [Example 079] | 970 nM
44 | COc1ccc(-c2ccnc3nc(NC(=O)NC4CCC(C(=O)N(C)C)CC4)nn23)cc1 (centres unmarked) [Example 169] | 660 nM
45 | COc1cccc([C@H](C)NC(=O)Nc2nc3nccc(-c4cccc(OCCCN(C)C)c4)n3n2)c1 [Example 221] | 120 nM
46 | CC(C)NC(=O)Nc1nc2nccc(-c3cccc(OCc4ccccn4)c3)n2n1 [Example 185] | 350 nM
47 | COc1cccc([C@H](C)NC(=O)Nc2nc3nccc(-c4cccc(OCc5ccccc5)c4)n3n2)c1 [Example 199] | 280 nM
48 | COc1ccc(-c2ccnc3nc(NC(=O)N[C@@H](C)CCc4ccccc4)nn23)cc1 [Example 127] | 80 nM
49 | COc1ccc(-c2ccnc3nc(NC(=O)NCCC(=O)Nc4ccccc4)nn23)cc1 [Example 156] | 50 nM
50 | CCOCCCC(C)NC(=O)Nc1nc2nccc(-c3ccc(OC)cc3)n2n1 (centres unmarked) [Example 276] | 120 nM
51 | COc1ccc(-c2ccnc3nc(NC(=O)N[C@H]4CCCc5ccccc54)nn23)cc1 [Example 134] | 50 nM
52 | COc1ccc(-c2ccnc3nc(NC(=O)NCc4ccccc4OC)nn23)cc1 [Example 214] | 420 nM
53 | CC(C)NC(=O)Nc1nc2nccc(-c3cccc(OCCCN(C)C)c3)n2n1 [Example 192] | 900 nM
54 | COc1cc(C(C)NC(=O)Nc2nc3nccc(-c4cccc(OCc5cccnc5)c4)n3n2)cc(OC)c1OC (centres unmarked) [Example 307] | 140 nM
55 | CC(C)CCC[C@H](C)NC(=O)Nc1nc2nccc(-c3cccc(OCc4cccnc4)c3)n2n1 [Example 261] | 80 nM
56 | CCC(C)NC(=O)Nc1nc2nccc(-c3ccc(OC)cc3)n2n1 (centres unmarked) [Example 100] | 320 nM
